Read-outs that look alike come from different tables or passages of the source.
Legend:
[1] = Enzyme-catalyzed hydrolysis in human CD4+ T-lymphocyte CEM cell extracts; format: in vitro ADME; conditions: for half-life at 0.86 mM: CEM/0 cell extracts (CD4+ T-lymphocytes), human CD4+ T-lymphocyte CEM cell extracts, 37 °C, read-out: CEM/0 cell extracts t 1/2 (converted)
Procedure: The stability of prodrugs 6 and the γ‐alkyl‐NTPs 7 was further investigated in human CD4 ^+ T‐lymphocyte CEM cell extracts. […] Thus, an enzymatic cleavage reaction took place. Half‐lives as low as 0.4 h (6 az) to 5.2 h (6 dz) were determined. […] This is in accordance to our previous results for the DiPPro‐[ ^17 , ^18 ] or the TriPPPro‐compounds 5.[ ^22 , ^23 ] In all cases we observed the predominant formation of γ‐alkyl‐d4TTPs 7 and d4TDP 2 d in very low concentration (Figure 2 B) but no NTP formation was detected, in contrast to the studies using the previously described TriPPPro compounds 5.[ ^23 , ^24 ] However, the difference to the compounds bearing long lipophilic acyl groups was not very pronounced (2‐ to 3‐fold). In the case of γ‐(AB‐C4,alkyl‐C18)‐d4TTP 6 cz, γ‐C18‐d4TTP 7 z was detected as the main product. After 8 h incubation, the ratio of γ‐C18‐d4TTP 7 z and d4TDP 2 d was 5:1. This was in sharp contrast to the studies performed with TriPPPro compounds 5.[ ^23 , ^24 ] There, it was almost impossible to detect significant concentrations of d4TTP due to its fast dephosphorylation to form first d4TDP and finally d4TMP 2 m. […] The formation of thymine or d4TTP 2 t from γ‐C18‐d4TTP 7 z was not detected (Supporting Information, Figure SI2).
ProLab 300 from Schott Co.. Thermomixer: Eppendorf Thermomixer 5436 and CellMedia Thermoschüttler basic were used. […]
Enzyme-catalyzed hydrolysis of γ-(AB,alkyl)-d4TTPs 6, γ-alkyl-d4TTPs 7,15 and TriPPPros 5 in CEM cell extracts:
18 µL of the appropriate 50 mM DMSO-d6 stock solution was diluted to 6.0 mM hydrolysis solution by addition of 132.0 µL DMSO-d6.
7-10 different samples including 10 µL water and 10 µL hydrolysis solution were prepared in 2 mL Eppendorf® vials. The reaction was started by addition of 50 µL human CEM cell extract and the mixture was incubated at 37 °C for different time periods. The reactions were stopped by addition of 150 μL MeOH. The solution was kept on ice for 5 min followed by centrifugation for 5 min (13000 rpm).
The supernatants were filtered (Chromafil® RC-20/15 MS, 0.2 μm) and stored in liquid nitrogen. When testing, the samples were defrosted and injection volume with 80 μL was used for HPLC analysis. The calculation of t1/2 was performed analogously to that for the chemical hydrolysis studies.
Preparation of cell extracts: Human CD4+ T-lymphocyte CEM cells were grown in RPMI-1640-based cell culture medium to a final density of ~3·10^6 cells/ml. Then, cells were centrifuged for 10 min at 1,250 rpm at 4 °C, washed twice with cold PBS, and the pellet was re-suspended at 10^8 cells/ml and sonicated (Hielscher Ultrasound Techn., 100% amplitude, 3·times for 10 sec) to destroy cell integrity. The resulting cell suspension was then centrifuged at 10,000 rpm to remove cell debris, and the supernatant divided in aliquots before being frozen at -80 C and used.

HIV-1(IIIB) = assay: Anti-HIV activity assay, HIV-1-infected wild-type CEM/0 cell cultures; format: cell-based; conditions: Human immunodeficiency virus 1, IIIB, CCRF-CEM, read-out: EC50 CEM/0 HIV-1
Procedure: (§1) γ‐(AB,alkyl)‐d4TTP prodrugs 6 and the γ‐alkyl‐d4TTPs 7 were evaluated for their ability to inhibit the replication of HIV in HIV‐1‐ or HIV‐2‐infected wild‐type CEM/0 as well as mutant thymidine‐kinase‐deficient CEM cell cultures (CEM/TK^−). For comparison, two TriPPPro derivatives 5 were also included in this assay.
(§2) Anti-HIV activity assay: Inhibition of HIV-1(IIIB)- and HIV-2(ROD)-induced cytopathicity in wild-type CEM/0 and thymidine kinase-deficient CEM/TK- cell cultures was measured in microtiter 96-well plates containing ~3·105 CEM cells/mL infected with 100 CCID50 of HIV per milliliter and containing appropriate dilutions of the test compounds. After 4−5 days of incubation at 37 °C in a CO2-controlled humidified atmosphere, CEM giant (syncytium) cell formation was examined microscopically. […]
(§3) was defined as the compound concentration required to inhibit HIV-induced giant cell formation by 50%. […]
(§4) The result was visualized by fluorescence imaging. […]
as §4

HIV-2(ROD) [2] = assay: Anti-HIV activity assay, HIV-2-infected wild-type CEM/0 cell cultures; format: cell-based; conditions: Human immunodeficiency virus 2, CCRF-CEM, read-out: EC50 CEM/0 HIV-2
Procedure: as §1, §2, §3, §4, §4

HIV-2(ROD) [3] = assay: Anti-HIV activity assay, HIV-2-infected thymidine-kinase-deficient CEM/TK- cell cultures; format: cell-based; conditions: for EC50: mean±SD, n=2-3
Procedure: as §1, §2, §3, §4, §4

[4] = target: T1, HIV reverse transcriptase (RT) (Human immunodeficiency virus type 1 group M subtype B, UniProt P03366); assay: Primer extension assay with HIV-RT; format: biochemical, HIV-1; conditions: for primer extension by HIV-RT (substrate properties): with the other three canonical triphosphates, HIV-RT 6 U
T1 construct: reverse transcriptase (RT; an HIV‐encoded RNA‐dependent DNA polymerase); purchased Roboklon
Procedure: Primer-extension reactions:
HIV-RT and human DNA polymerase β and γ were obtained from Roboklon, human DNA polymerase α was obtained from Chimerx.
The primers and templates were purchased from Life Technologies and Microsynth. The fluorescent labeled primer was purchased
from Metabion and Microsynth. The gels were prepared with the size of 450mm×200mm×0.4mm according to the electrophoresis
5’-FITC and 5’-Cy3 labeled Primer-sequence:
The primer extension assays were performed under the following conditions:
FITC and Cy3 labeled primer extension assay:
1) Hybridization: After 5 min incubation at 95 °C in 20 mM Tris-HCl (pH 7.6) and 50 mM NaCl, the hybridization/annealing of the
primer to the template strand was achieved by a cooling phase from 95 °C to […] lasted more than 2 hours. […]
The assays were separated using a denaturating PAGE (15%). The result was visualized by fluorescence imaging. […]
as §4, §4

[5] = Human immunodeficiency virus 2, CEM-TK(-), read-out: EC50 CEM/TK− HIV-2, thymidine-kinase-deficient CEM/TK− cells, HIV-2
[6] = wild-type CEM/0 cells, HIV-1, mean±SD, n=2-3
[7] = wild-type CEM/0 cells, HIV-2, mean±SD, n=2-3
[8] = Human immunodeficiency virus 2, thymidine-kinase-deficient CEM/TK− cells, HIV-2, read-out: EC50 CEM/TK− HIV-2
[9] = read-out: EC50 CEM/TK− HIV-2, thymidine-kinase-deficient CEM/TK− cells, HIV-2

EC50 (HIV-1(IIIB); [6]) [nM] | EC50 (HIV-2(ROD) [2]; [7]) [nM] | EC50 (HIV-2(ROD) [3]; [8]) [nM] | SMILES | stability in cell extracts (in words) ([1]; CEM cell extracts, incubation up to 30 h) | EC50 (HIV-1(IIIB)) [nM] | EC50 (HIV-2(ROD) [2]) [nM] | antiviral activity in CEM/TK− cell cultures (in words) (HIV-2(ROD) [3]; HIV-2-infected CEM/TK− cells) | EC50 (HIV-2(ROD) [3]; [5]) [nM] | primer extension by HIV-RT (substrate properties) ([4]; 60 min incubation, dNTPs 66 μM) | half-life at 0.86 mM [1] [h] | EC50 (HIV-2(ROD) [3]; [9]) [nM] | primer extension by HIV-RT (substrate properties) ([4]; 15 min incubation) | comparison of substrate properties for HIV-RT ([4]; incubation 10, 20, 40 and 60 min, conversion of primer to n+1 product) | antiviral activity improved versus TriPPPro intermediates comprising a C17 aliphatic chain (HIV-2(ROD) [3]; HIV-2-infected CEM/TK− cells) [fold] | more active than d4T (HIV-2(ROD) [3]; HIV-2-infected CEM/TK− cells) [fold] | primer extension by HIV-RT (substrate properties) ([4]; 30 min incubation)
 |  |  | Cc1cn(C2C=CC(COP(=O)(O)OP(=O)(O)OP(=O)(O)O)O2)c(=O)[nH]c1=O (stereo not drawn) [2 t, d4TTP, reference compound] | rapidly enzymatically dephosphorylated | 1050 ± 350 | 400 ± 260 | inactive | > 100000 | only the n+1 band is visible |  |  |  |  |  |  | 
180 ± 90 | 160 ± 100 | 170 | CCCCCCCCCCCCCCCCCCOP(=O)(OCc1ccc(OC(=O)CCCC)cc1)OP(=O)(O)OP(=O)(O)OCC1C=CC(n2cc(C)c(=O)[nH]c2=O)O1 (stereo not drawn) [6 cz, γ‐(AB‐C4,alkyl‐C18)‐d4TTP] |  |  |  |  |  |  | 4.8 |  |  |  |  |  | 
330 ± 110 | 240 ± 10 | > 10000 | CCCCCCCCCCCCCCCC(=O)Oc1ccc(COP(=O)(OCCCC)OP(=O)(O)OP(=O)(O)OCC2C=CC(n3cc(C)c(=O)[nH]c3=O)O2)cc1 (stereo not drawn) [6 ew, γ‐(AB‐C15,alkyl‐C4)‐d4TTP] |  |  |  | inactive |  |  | 2.2 |  |  |  |  |  | 
 |  |  | CCCCOP(=O)(O)OP(=O)(O)OP(=O)(O)OCC1C=CC(n2cc(C)c(=O)[nH]c2=O)O1 (stereo not drawn) [7 w, γ‐C4‐d4TTP] |  | 950 ± 510 | 290 ± 150 | almost inactive | 35000 |  | > 30 | 36000 ± 29000 | single incorporation and an immediate chain termination | better substrates |  |  | 
 |  |  | CCCCCCCCCCCCCCCCCCOP(=O)(O)OP(=O)(O)OP(=O)(O)OCC1C=CC(n2cc(C)c(=O)[nH]c2=O)O1 (stereo not drawn) [7 z, γ‐C18‐d4TTP] |  | 110 ± 42 | 110 ± 84 | highly potent | 55 | Only the n+1 band was detected | > 30 | 50 ± 27 |  |  | 30 | 2700 | immediate chain termination

From paper PMC7756582, “Prodrugs of γ‐Alkyl‐Modified Nucleoside Triphosphates: Improved Inhibition of HIV Reverse Transcriptase” (Angewandte Chemie (International Ed. in English), 2020)
